Laboratory results reported in US20130287721A1, “METHOD FOR COUNTERACTING AMMONIA MALODOR” (Firmenich SA, priority 2010, published 2013).

System: ammonia lateralization threshold
Assay: Panel evaluation of the lateralization threshold (LT) of ammonia alone and in combination with a PRM
Assay type: in vivo, panellists
Set-up: LT of ammonia Panellist 1 Cond II / LT of ammonia Panellist 2 Cond II / LT of ammonia Panellist 3 Cond II: unit not given here
Settings: for LT of ammonia Panellist 1 Cond II / LT of ammonia Panellist 2 Cond II / LT of ammonia Panellist 3 Cond II / LT of ammonia Panellist 1 %Δ / LT of ammonia Panellist 2 %Δ / LT of ammonia Panellist 3 %Δ: Table 4; for LT of ammonia Panellist 1 Cond II / LT of ammonia Panellist 2 Cond II / LT of ammonia Panellist 3 Cond II: ammonia stimulus combined with PRM stimulus; for LT of ammonia Panellist 1 %Δ / LT of ammonia Panellist 2 %Δ / LT of ammonia Panellist 3 %Δ / Ammonia LT Panellist 1 % Δ / Ammonia LT Panellist 2 % Δ / Ammonia LT Panellist 3 % Δ: change of ammonia LT, Cond II (with PRM) vs Cond I (ammonia alone); for Ammonia LT Panellist 1 Cond II / Ammonia LT Panellist 2 Cond II / Ammonia LT Panellist 3 Cond II / Ammonia LT Panellist 1 % Δ / Ammonia LT Panellist 2 % Δ / Ammonia LT Panellist 3 % Δ: Table 3; for Ammonia LT Panellist 1 Cond II / Ammonia LT Panellist 2 Cond II / Ammonia LT Panellist 3 Cond II: ammonia stimulus combined with PRM stimulus (concentration of Table 2 in propylene glycol)
Procedure: An ammonia stimulus test range was prepared. To ensure a stable level of ammonia in each stimulus, the ammonia headspace was stabilized by combining appropriate concentrations of NH4Cl, NaOH and H2O instead of simply adding ammonia directly to a solvent. Different concentrations of ammonia were used to create a stimulus test range by utilizing the appropriate amount of each compound (see Table 1).
A stimulus was also prepared for each PRM which was intended to be combined with ammonia stimuli. As the PRMs differed in their potency and to ensure that each PRM stimulus had approximately the same potency, an abbreviated dose response curve was constructed for each PRM by having four panellists evaluate the intensity of five concentration levels of the PRM dissolved in propylene glycol in duplicate. Assessments were made relative to the reference of 170 ppm allyl heptanoate in propylene glycol, which intensity was set to 0. Based upon the average scores, a rough intensity match was made for each PRM utilizing one of the following criteria. If one of the tested concentration levels averaged at or near zero, this concentration level was selected. If the rating created any sort of reasonable curve, the equation of the curve was determined and solved for 0 to arrive at the PRM assessment level. If multiple concentration levels were equally distant form the match level, then the standard deviation across individuals was considered, as were the individual responses. In general, the PRM level was selected to be on average close to 0 with low variability, with two panellists saying the level was a bit too high and the other two panellists saying the level was a bit too low. The PRMs for which a stimulus was prepared are listed in Table 2 below, together with the concentration of the PRM in the stimulus.
Volunteers were screened for their ability to lateralize ammonia stimuli. For the screening, the experimenter measured the participant's lateralization threshold for ammonia using a two-alternative forced choice modified staircase procedure employing a four-in, two-down, one-up rule with a five reversal criterion, as described below, On each trial volunteers were presented with a pair of glass bottles with clean, custom-made nose pieces. One bottle contained ammonia at a particular level selected from Table 1 and the other bottle contained water only. Each bottle was applied to one nostril using the nose piece. The volunteers were asked to identify which bottle in each pair contained ammonia.
If the ammonia stimulus was correctly identified in four consecutive trials, the concentration was decreased by one level of Table 1 on the next trial. If an incorrect answer was provided, the concentration was increased by one level of Table 1. Location (left or right nostril) of the stimulus was randomized over presentations. Testing continued until one of the following occurred: • 1) Five reversals (correct decision followed by an incorrect decision or vice versa) were achieved; • 2) The volunteer gave a correct response twice in a row at the lowest level of Table 1; or • 3) The volunteer gave an incorrect response at the highest level of Table 1.
In the first circumstance, threshold values were then calculated by averaging the last four reversals. In the second circumstance, the LT was the lowest level. In the third circumstance, the LT could not be calculated. Volunteers were considered qualified to participate in the panel evaluation if their LT could be calculated (Circumstance 1).
The LT of ammonia, both alone and in combination with diverse PRM, was determined. A repeated-measures design was used, such that the LT with and without the addition of a PRM were both measured at the same time in one person by utilizing interwoven stimuli presentations. The LT for each PRM was measured by two to three panellists, the third panellists being included if the results of the first to panellists disagreed. […]

Row | SMILES | LT of ammonia Panellist 1 Cond II | LT of ammonia Panellist 2 Cond II | LT of ammonia Panellist 3 Cond II | LT of ammonia Panellist 1 %Δ [%] | LT of ammonia Panellist 2 %Δ [%] | LT of ammonia Panellist 3 %Δ [%] | Ammonia LT Panellist 1 Cond II [ppm] | Ammonia LT Panellist 2 Cond II [ppm] | Ammonia LT Panellist 3 Cond II [ppm] | Ammonia LT Panellist 1 % Δ [%] | Ammonia LT Panellist 2 % Δ [%] | Ammonia LT Panellist 3 % Δ [%]
1 | C=C1CCCC(C)(C)C1C(=O)OC (stereo not shown) [Romascone ®, Methyl 2,2-dimethyl-6-methylene-1-cyclohexanecarboxylate] | 11.1 | 2.0 | 6.3 | 1685 | 77 | 1686 | – | – | – | – | – | –
2 | CC/C=C\CCO [(Z)-3-hexen-1-ol] | – | – | – | – | – | – | 2.3 | 225.5 | 56.3 | −68 | 0 | 671
3 | CCCC(C)C(=O)OCC (stereo not shown) [Applinate ®, Ethyl 2-methyl-pentanoate] | – | – | – | – | – | – | 2.3 | 55.1 | – | −62 | −23 | –
4 | CC=CC(=O)C1=C(C)CCCC1(C)C [Beta Dorinone ®, 1-(2,6,6-trimethyl-1-cyclohexen-1-yl)-2-buten-1-one] | 11.1 | 19.6 | 2.0 | 214 | 885 | 1558 | – | – | – | – | – | –
5 | CCCCC(CC)CCC(C)O (stereo not shown) [5-ethyl-2-nonanol] | 19.6 | 6.2 | 6.3 | 885 | 452 | 214 | – | – | – | – | – | –
6 | CC(C)[C@H]1CC[C@@H](CO)CC1 [Mayol ®, cis-7-P-menthanol] | 0.6 | 3.5 | 3.5 | 800 | 212 | 212 | – | – | – | – | – | –
7 | Cc1ccc2c(c1)CC(C)(CO)C2 (stereo not shown) [Lilyflore ®, 2,5-Dimethyl-2-indanmethanol] | – | – | – | – | – | – | 60.0 | 176.5 | 7.3 | 162 | −6 | −84
8 | CC(C)=CCC/C(C)=C/CO [Geraniol] | – | – | – | – | – | – | 6.1 | 60.0 | – | −68 | −73 | –
9 | C=C(CC(C)CO)C1CC=C(C)C1(C)C (stereo not shown) [2-Methyl-4-(2,2,3-trimethyl-3-cyclopenten-1-yl)-4-penten-1-ol] | 3.5 | 3.5 | 2.0 | 212 | 212 | 852 | – | – | – | – | – | –
10 | O=C1CCCCCCCCCCCCCCO1 [Exaltolide ®, Pentadecanolide] | – | – | – | – | – | – | 6.1 | 71.9 | – | 213 | 214 | –
11 | CC(=O)OCCC1CCCCC1 [2-cyclohexylethyl acetate] | 2.0 | 1.1 | 1.1 | 848 | 465 | 842 | – | – | – | – | – | –
12 | CCCCCCOC(=O)c1ccccc1O [Hexyl salicylate] | – | – | – | – | – | – | 7.3 | 188.3 | 7.3 | −68 | 162 | −62
13 | C=CC(C)(O)CCC=C(C)C (stereo not shown) [Linalool] | – | – | – | – | – | – | 188.3 | 22.9 | 56.3 | 2480 | 0 | 214
14 | CCOC(=O)C1CCC(C(=O)OCC)CC1 (stereo not shown) [Fructalate ®, Diethyl 1,4-cyclohexane dicarboxylate] | – | – | – | – | – | – | 56.3 | 188.3 | – | 194 | 214 | –
15 | CCCCC[C@@H]1C(=O)CC[C@@H]1CC(=O)OC [Paradisone ®, (+)-Methyl (1R)-cis-3-oxo-2-pentyl-1-cyclopentaneacetate] | – | – | – | – | – | – | 22.9 | 225.5 | 6.1 | 0 | 214 | −73
16 | CC(CC=O)CCCC(C)(C)O (stereo not shown) [Hydroxycitronellal] | – | – | – | – | – | – | 71.9 | 56.1 | 22.9 | 20 | −22 | 20
17 | CCCCC[C@H]1CCC[C@H]1O (relative stereo) [Cis-2-pentyl-1-cyclopentanol] | 2.0 | 0.4 | 3.5 | 216 | 90 | 212 | – | – | – | – | – | –
18 | CC1(C)CCCC2(C)C1CCC1(C)OCCC12 (stereo not shown) [Cetalox ®, Dodecahydro-3a,6,6,9a-tetramethyl-naphtho[2,1-b]furan] | – | – | – | – | – | – | 2.3 | 225.5 | 2.3 | −90 | 2988 | −68
19 | CC(C)CCCC(C)CCO (stereo not shown) [3,7-Dimethyl-1-octanol] | 6.3 | 3.5 | 3.5 | 214 | 77 | 77 | – | – | – | – | – | –
20 | CCOC(=O)C1=C(C)C=CCC1(C)C [Ethyl 2,6,6-trimethyl-1,3-cyclohexadiene-1-carboxylate] | 0.6 | 0.6 | 0.2 | 786 | 215 | 200 | – | – | – | – | – | –
